Assay results taken from ChEMBL document CHEMBL6087458, “The Discovery of a Novel AXL/Triple Angiokinase Inhibitor Based on 6-Chloro-Substituted Indolinone and Side Chain Methyl Substitution Inhibiting Pancreatic Cancer Growth and Metastasis” (J Med Chem, 2025).

Assays:
BXPC-3 = test: cells; conditions: Homo sapiens, BXPC-3, 72 h
Description: Antiproliferative activity against human BXPC-3 cells assessed as cell viability incubated for 72 hrs by MTT assay

[1] = Cytotoxicity against human HUVEC cells assessed as cell viability incubated for 72 hrs by MTT assay; type: toxicity, cell-based
MDA-MB-231 = test: cells; conditions: Homo sapiens, MDA-MB-231, 72 h
Description: Antiproliferative activity against human MDA-MB-231 cells assessed as cell viability incubated for 72 hrs by MTT assay

[2] = Cytotoxicity against mouse NIH/3T3 cells assessed as cell viability incubated for 72 hrs by MTT assay; type: toxicity, cell-based, NIH3T3
A549 = test: cells; conditions: Homo sapiens, A549, 72 h
Description: Antiproliferative activity against human A549 cells assessed as cell viability incubated for 72 hrs by MTT assay

| SMILES | IC50 (BXPC-3) [nM] | IC50 (MDA-MB-231) [nM] | IC50 (A549) [nM] | IC50 at 72 h [1] [nM] | IC50 at 72 h [2] [nM] |
| --- | --- | --- | --- | --- | --- |
| CN(C(=O)CN1CCN(CCO)CC1)c1ccc(N/C(=C2\C(=O)Nc3cc(Cl)ccc32)c2ccccc2)cc1 | 1540 | 1350 |  | 1650 | 2200 |
| COC(=O)c1ccc2c(c1)NC(=O)/C2=C(\Nc1ccc(N(C)C(=O)[C@@H](C)N2CCN(C)CC2)cc1)c1ccccc1 |  |  |  | 1360 | 3750 |
| COC(=O)c1ccc2c(c1)NC(=O)/C2=C(\Nc1ccc(N(C)C(=O)CN2CCC(N(C)C)CC2)cc1)c1ccccc1 | 2560 | 6340 |  | 2970 | 3510 |
| COC(=O)c1ccc2c(c1)NC(=O)/C2=C(\Nc1ccc(N(C)C(=O)[C@H](C)N2CCN(C)CC2)cc1)c1ccccc1 |  |  |  | 1650 | 1170 |
| CN(C(=O)CN1CCN(CCO)CC1)c1ccc(N/C(=C2\C(=O)Nc3cc(Br)ccc32)c2ccccc2)cc1 | 3570 | 3210 |  | 2490 | 2950 |
| CN(C(=O)CN1CCC(N(C)C)CC1)c1ccc(N/C(=C2\C(=O)Nc3cc(Br)ccc32)c2ccccc2)cc1 | 3020 | 2970 |  | 1940 | 2310 |
| CN1CCCN(CC(=O)N(C)c2ccc(N/C(=C3\C(=O)Nc4cc(Cl)ccc43)c3ccccc3)cc2)CC1 | 3140 | 3870 |  | 4980 | 4520 |
| CN1CCCN(CC(=O)N(C)c2ccc(N/C(=C3\C(=O)Nc4cc(Br)ccc43)c3ccccc3)cc2)CC1 | 2150 | 3290 |  | 3190 | 5980 |
| CCN1CCN(CC(=O)N(C)c2ccc(N/C(=C3\C(=O)Nc4cc(Cl)ccc43)c3ccccc3)cc2)CC1 | 1780 | 3190 |  | 1850 | 1950 |
| CCN1CCN(CC(=O)N(C)c2ccc(N/C(=C3\C(=O)Nc4cc(C(=O)OC)ccc43)c3ccccc3)cc2)CC1 | 2310 | 5980 |  | 2720 | 3440 |
| COC(=O)c1ccc2c(c1)NC(=O)/C2=C(\Nc1ccc(N(C)C(=O)CN(C)CCN(C)C)cc1)c1ccccc1 | 6010 | > 10000 |  | 2970 | 3570 |
| COC(=O)c1ccc2c(c1)NC(=O)/C2=C(\Nc1ccc(N(C)C(=O)C(C)N2CCSCC2)cc1)c1ccccc1 (racemic) | > 10000 | > 10000 |  | > 10000 | > 10000 |
| CC(C(=O)N(C)c1ccc(N/C(=C2\C(=O)Nc3cc(Br)ccc32)c2ccccc2)cc1)N1CCCN(C)CC1 (racemic) | 1950 | 1860 |  | 2150 | 3900 |
| CC(C(=O)N(C)c1ccc(N/C(=C2\C(=O)Nc3cc(Br)ccc32)c2ccccc2)cc1)N(C)CCN(C)C (racemic) | 3740 | 4540 |  | 1770 | 770 |
| COC(=O)c1ccc2c(c1)NC(=O)/C2=C(\Nc1ccc(N(C)C(=O)C(C)N2CCNCC2)cc1)c1ccccc1 (racemic) | > 10000 | > 10000 |  | > 10000 | > 10000 |
| COC(=O)c1ccc2c(c1)NC(=O)/C2=C(\Nc1ccc(N(C)C(=O)C(C)N2CCCN(C)CC2)cc1)c1ccccc1 (racemic) | 1660 | 5780 |  | 1810 | 2930 |
| COC(=O)c1ccc2c(c1)NC(=O)/C2=C(\Nc1ccc(N(C)C(=O)C(C)N2CCOCC2)cc1)c1ccccc1 (racemic) | > 10000 | > 10000 |  | > 10000 | > 10000 |
| CC(C(=O)N(C)c1ccc(N/C(=C2\C(=O)Nc3cc(Br)ccc32)c2ccccc2)cc1)N1CCSCC1 (racemic) | > 10000 | > 10000 |  | > 10000 | > 10000 |
| CCN1CCN(C(C)C(=O)N(C)c2ccc(N/C(=C3\C(=O)Nc4cc(Br)ccc43)c3ccccc3)cc2)CC1 (racemic) | 2440 | 2470 |  | 670 | 1870 |
| COC(=O)c1ccc2c(c1)NC(=O)/C2=C(\Nc1ccc(N(C)C(=O)C(C)N2CCN(C)CC2)cc1)c1ccccc1 (racemic) | 3740 | 5340 |  | 1430 | 2250 |
| CC(C(=O)N(C)c1ccc(N/C(=C2\C(=O)Nc3cc(Cl)ccc32)c2ccccc2)cc1)N1CCN(C)CC1 (racemic) | 1890 | 1240 |  | 840 | 1430 |
| CC(C(=O)N(C)c1ccc(N/C(=C2\C(=O)Nc3cc(Cl)ccc32)c2ccccc2)cc1)N1CCOCC1 (racemic) | > 10000 | > 10000 |  | > 10000 | > 10000 |

Second part, led by results:

| IC50 (BXPC-3) [nM] | IC50 (MDA-MB-231) [nM] | IC50 (A549) [nM] | SMILES | IC50 at 72 h [1] [nM] | IC50 at 72 h [2] [nM] |
| --- | --- | --- | --- | --- | --- |
| > 10000 | > 10000 |  | COC(=O)c1ccc2c(c1)NC(=O)/C2=C(\Nc1ccc(N(C)C(=O)CN2CCOCC2)cc1)c1ccccc1 | > 10000 | > 10000 |
| 2980 | 4540 |  | CN1CCN(CC(=O)N(C)c2ccc(N/C(=C3\C(=O)Nc4cc(Cl)ccc43)c3ccccc3)cc2)CC1 | 1800 | 3110 |
| > 10000 | > 10000 |  | CN(C(=O)CN1CCOCC1)c1ccc(N/C(=C2\C(=O)Nc3cc(Br)ccc32)c2ccccc2)cc1 | > 10000 | > 10000 |
| 3730 | 7830 |  | COC(=O)c1ccc2c(c1)NC(=O)/C2=C(\Nc1ccc(N(C)C(=O)CN2CCCN(C)CC2)cc1)c1ccccc1 | 2910 | 3820 |
| 3570 | 3910 |  | CCN1CCN(CC(=O)N(C)c2ccc(N/C(=C3\C(=O)Nc4cc(Br)ccc43)c3ccccc3)cc2)CC1 | 1570 | 3200 |
| 4220 | 4960 |  | CN(C)CCN(C)CC(=O)N(C)c1ccc(N/C(=C2\C(=O)Nc3cc(Br)ccc32)c2ccccc2)cc1 | 4710 | 5890 |
| > 10000 | > 10000 |  | CC(C(=O)N(C)c1ccc(N/C(=C2\C(=O)Nc3cc(Cl)ccc32)c2ccccc2)cc1)N1CCSCC1 (racemic) | > 10000 | > 10000 |
| 1740 | 2040 |  | CC(C(=O)N(C)c1ccc(N/C(=C2\C(=O)Nc3cc(Cl)ccc32)c2ccccc2)cc1)N1CCCN(C)CC1 (racemic) | 690 | 2200 |
| 5780 | 5980 |  | COC(=O)c1ccc2c(c1)NC(=O)/C2=C(\Nc1ccc(N(C)C(=O)C(C)N(C)CCN(C)C)cc1)c1ccccc1 (racemic) | 2000 | 2570 |
| 1640 | 5070 |  | CCN1CCN(C(C)C(=O)N(C)c2ccc(N/C(=C3\C(=O)Nc4cc(C(=O)OC)ccc43)c3ccccc3)cc2)CC1 (racemic) | 1500 | 2100 |
| 1890 | 1440 |  | CC(C(=O)N(C)c1ccc(N/C(=C2\C(=O)Nc3cc(Br)ccc32)c2ccccc2)cc1)N1CCN(C)CC1 (racemic) | 950 | 2140 |
| 1690 | 5540 |  | COC(=O)c1ccc2c(c1)NC(=O)/C2=C(\Nc1ccc(N(C)C(=O)C(C)N2CCC(N(C)C)CC2)cc1)c1ccccc1 (racemic) | 1080 | 1990 |
| 2470 | 4960 |  | COC(=O)c1ccc2c(c1)NC(=O)/C2=C(\Nc1ccc(N(C)C(=O)C(C)N2CCN(CCO)CC2)cc1)c1ccccc1 (racemic) | 1090 | 1370 |
| 1740 | 1490 |  | CC(C(=O)N(C)c1ccc(N/C(=C2\C(=O)Nc3cc(Br)ccc32)c2ccccc2)cc1)N1CCC(N(C)C)CC1 (racemic) | 1110 | 1590 |
| 2040 | 1980 |  | CC(C(=O)N(C)c1ccc(N/C(=C2\C(=O)Nc3cc(Cl)ccc32)c2ccccc2)cc1)N1CCC(N(C)C)CC1 (racemic) | 830 | 980 |
| 2310 | 2060 |  | CC(C(=O)N(C)c1ccc(N/C(=C2\C(=O)Nc3cc(Br)ccc32)c2ccccc2)cc1)N1CCN(CCO)CC1 (racemic) | 1980 | 2110 |
|  |  | 1340 | CC(=O)O[C@H]1C(=O)[C@@]2(C)[C@H]([C@H](OC(=O)c3ccccc3)[C@]3(O)C[C@H](OC(=O)[C@H](O)[C@@H](NC(=O)c4ccccc4)c4ccccc4)C(C)=C1C3(C)C)[C@]1(OC(C)=O)CO[C@@H]1C[C@@H]2O [PACLITAXEL] |  |  |
